According to patent US11078198B2 (BRISTOL-MYERS SQUIBB COMPANY, priority 2017, dated 2021):

Biological target: T1, human FXR (Homo sapiens, UniProt Q96RI1)
T1 construct: expressed in transfected cells; host or cells: HEK293 cells stably carrying a 5xGal4-response-element firefly luciferase reporter, transiently transfected with pcDNA3.1-Gal4-FXR
T1 sequence (Q96RI1 262-486 limits assumed): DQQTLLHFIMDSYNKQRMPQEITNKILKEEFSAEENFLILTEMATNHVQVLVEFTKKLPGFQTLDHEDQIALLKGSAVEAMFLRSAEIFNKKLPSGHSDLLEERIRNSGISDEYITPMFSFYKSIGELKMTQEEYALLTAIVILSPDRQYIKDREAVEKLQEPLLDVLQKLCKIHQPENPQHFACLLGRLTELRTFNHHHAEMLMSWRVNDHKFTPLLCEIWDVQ
Test: transient human FXR/Gal4-luciferase reporter assay
Format: cell-based
Details: Gal4-hFXR transfected HEK293 reporter cells; relative to 8 μM GW-4064
Experimental: A Gal4-hFXR fusion construct reporter system was used as the primary assay to characterize compound activity. A construct including 5 copies of the Gal4 promoter response element upstream of a firefly luciferase reporter cDNA was stably expressed in HEK293 cells. This reporter cell line was maintained in Dulbecco's Modified Eagle's medium (DMEM; Gibco) supplemented with 1% penicillin-streptomycin (P/S) solution, 500 μg/mL Zeocin and 10% charcoal/dextran-treated fetal bovine serum (cs-FBS) at 37° C. in a humidified 5% CO2 atmosphere. Another plasmid was constructed in which the human cytomegalovirus promoter in the pcDNA3.1 vector directs the expression of the cDNA encoding a fusion protein comprised of the DNA binding domain from the Gal4 transcription factor fused to the ligand binding domain from human FXR.
The day prior to transfection, the reporter cells in culture are detached from the plate with trypsin and plated into a T75 flask at a sufficient density to achieve approximately 90% confluence the next morning. The transfection reagents are prepared by separately diluting 25 μg of the pcDNA3.1-Gal4-FXR plasmid into 1.87 mL of Opti-MEM (Thermo-Fisher), and 40 μL of Lipofectamine 2000 (Thermo-Fisher) into 1.87 mL of Opti-MEM, and then adding the diluted DNA solution into the diluted Lipofectamine 2000 solution and incubating at room temperature for 15-20 minutes. The mixture is further diluted with 10 mL of a solution comprised of DMEM, 10% cs-FBS, and 1% P/S immediately prior to transferring to the cells. The maintenance culture media is aspirated from the cells and the final transfection mixture is added before the cells are incubated overnight at 37° C. in a humidified 5% CO2 atmosphere. This protocol can be scaled up, and the transiently transfected cells can be cryopreserved in an assay-ready format.
For compound testing, 100 nL of the compounds (serial dilutions in DMSO) are dispensed with an Echo acoustic dispenser (Labcyte) into the wells of a Corning/Costar clear bottom 384-well white plate. The transfected cells are harvested, counted, and diluted such that 10-25,000 cells in 25 μL are plated into each well of the 384-well compound assay plate. The compound-treated cells are incubated overnight at 37° C. in a humidified 5% CO2 atmosphere.

EC50 | Structure (SMILES)
4350 nM | O=C(O)c1ccc2cc(N3CCC4(C=C(c5c(-c6ccncc6Cl)noc5C5CC5)C4)CC3)ccc2n1 [Example 150, 6-(2-(3-(3-Chloropyridin-4-yl)-5-cyclopropylisoxazol-4-yl)-7-azaspiro[3.5]non-1-en-7-yl)quinoline-2-carboxylic acid]
2370 nM | Cn1c(C(=O)O)cc2cc(N3CCC4(C=C(c5c(-c6ccccc6OC(F)(F)F)noc5C5CC5)C4)CC3)ncc21 [Example 172, 5-(2-(5-Cyclopropyl-3-(2-(trifluoromethoxy)phenyl)isoxazol-4-yl)-7-azaspiro[3.5]non-1-en-7-yl)-1-methyl-1H-pyrrolo[2,3-c]pyridine-2-carboxylic acid]
4.1 nM | COc1cc(C(=O)O)cc2sc(N3CCC4(C=C(c5c(-c6c(Cl)cncc6Cl)noc5C5CC5)C4)CC3)nc12 [Example 59, 2-(2-(5-Cyclopropyl-3-(3,5-dichloropyridin-4-yl)isoxazol-4-yl)-7-azaspiro[3.5]non-1-en-7-yl)-4-methoxybenzo[d]thiazole-6-carboxylic acid]
1990 nM | O=C(O)c1ccc2cc(N3CCC4(C=C(c5c(-c6c(F)cccc6F)noc5C5CC5)C4)CC3)ccc2n1 [Example 151, 6-(2-(5-Cyclopropyl-3-(2,6-difluorophenyl)isoxazol-4-yl)-7-azaspiro[3.5]non-1-en-7-yl)quinoline-2-carboxylic acid]
38 nM | O=C(O)c1cc(OC(F)F)c2cc(N3CCC4(C=C(c5c(-c6ccncc6Cl)noc5C5CC5)C4)CC3)ccc2n1 [Example 74, 6-(2-(3-(3-Chloropyridin-4-yl)-5-cyclopropylisoxazol-4-yl)-7-azaspiro[3.5]non-1-en-7-yl)-4-(difluoromethoxy)quinoline-2-carboxylic acid]
2150 nM | COc1cc(N2CCC3(C=C(c4c(-c5c(Cl)cncc5Cl)noc4C4CC4)C3)CC2)ncc1C(=O)O [Example 76, 6-(2-(5-Cyclopropyl-3-(3,5-dichloropyridin-4-yl)isoxazol-4-yl)-7-azaspiro[3.5]non-1-en-7-yl)-4-methoxynicotinic acid]
200 nM | O=C(O)c1cc(F)c2nc(N3CCC4(C=C(c5c(-c6ncccc6Cl)noc5C5CC5)C4)CC3)sc2c1 [Example 46, 2-(2-(3-(3-Chloropyridin-2-yl)-5-cyclopropylisoxazol-4-yl)-7-azaspiro[3.5]non-1-en-7-yl)-4-fluorobenzo[d]thiazole-6-carboxylic acid]
7.2 nM | Cc1cc(C(=O)O)cc2sc(N3CCC4(C=C(c5c(-c6c(Cl)cncc6Cl)noc5C5CC5)C4)CC3)nc12 [Example 61, 2-(2-(5-Cyclopropyl-3-(3,5-dichloropyridin-4-yl)isoxazol-4-yl)-7-azaspiro[3.5]non-1-en-7-yl)-4-methylbenzo[d]thiazole-6-carboxylic acid]
238 nM | CS(=O)(=O)NC(=O)c1cc(OC(F)F)c2cc(N3CCC4(C=C(c5c(-c6cccnc6C(F)(F)F)noc5C5CC5)C4)CC3)ccc2n1 [Example 192, 6-(2-(5-Cyclopropyl-3-(2-(trifluoromethyl)pyridin-3-yl)isoxazol-4-yl)-7-azaspiro[3.5]non-1-en-7-yl)-4-(difluoromethoxy)-N-(methylsulfonyl)quinoline-2-carboxamide]
16 nM | O=C(O)c1cc(OC(F)F)c2cc(N3CCC4(C=C(c5c(-c6c(Cl)cncc6Cl)noc5C5CC5)C4)CC3)ccc2n1 [Example 73, 6-(2-(5-Cyclopropyl-3-(3,5-dichloropyridin-4-yl)isoxazol-4-yl)-7-azaspiro[3.5]non-1-en-7-yl)-4-(difluoromethoxy)quinoline-2-carboxylic acid]
548 nM | CC(C)c1onc(-c2c(Cl)cccc2Cl)c1C1=CC2(CCN(c3ccc4cc(C(=O)O)nnc4c3)CC2)C1 [Example 148, 7-(2-(3-(2,6-Dichlorophenyl)-5-isopropylisoxazol-4-yl)-7-azaspiro[3.5]non-1-en-7-yl) cinnoline-3-carboxylic acid]
26 nM | O=C(O)c1cc(C(F)(F)F)c2cc(N3CCC4(C=C(c5c(C(F)F)cnn5-c5ccccc5C(F)(F)F)C4)CC3)ccc2n1 [Example 214, 6-(2-(4-(Difluoromethyl)-1-(2-(trifluoromethyl)phenyl)-1H-pyrazol-5-yl)-7-azaspiro[3.5]non-1-en-7-yl)-4-(trifluoromethyl)quinoline-2-carboxylic acid]
1500 nM | O=C(O)c1ccc(N2CCC3(C=C(c4c(-c5ccccc5OC(F)(F)F)noc4C4CC4)C3)CC2)nn1 [Example 18, 6-(2-(5-Cyclopropyl-3-(2-(trifluoromethoxy)phenyl)isoxazol-4-yl)-7-azaspiro[3.5]non-1-en-7-yl)pyridazine-3-carboxylic acid]
33 nM | O=C(O)c1ccc2nc(N3CCC4(C=C(c5c(-c6c(Cl)cccc6Cl)noc5C5CC5)C4)CC3)cnc2c1 [Example 100, 2-(2-(5-cyclopropyl-3-(2,6-dichlorophenyl)isoxazol-4-yl)-7-azaspiro[3.5]non-1-en-7-yl)quinoxaline-6-carboxylic acid]
219 nM | O=C(O)c1cc(C(F)(F)F)c2cc(N3CCC4(C=C(c5c(-c6ncccc6Cl)noc5C5CC5)C4)CC3)ccc2n1 [Example 91, 6-(2-(3-(3-Chloropyridin-2-yl)-5-cyclopropylisoxazol-4-yl)-7-azaspiro[3.5]non-1-en-7-yl)-4-(trifluoromethyl)quinoline-2-carboxylic acid]
311 nM | CNC(=O)c1cc(F)c2nc(N3CCC4(C=C(c5c(-c6c(Cl)cncc6Cl)noc5C5CC5)C4)CC3)sc2c1 [Example 198, 2-(2-(5-Cyclopropyl-3-(3,5-dichloropyridin-4-yl)isoxazol-4-yl)-7-azaspiro[3.5]non-1-en-7-yl)-4-fluoro-N-methylbenzo[d]thiazole-6-carboxamide]
1280 nM | O=C(O)c1cc(F)c2nc(OC3CCC4(C=C(c5c(-c6c(Cl)cccc6Cl)noc5C5CC5)C4)CC3)sc2c1 (stereo not shown) [Example 209, 2-((2-(5-Cyclopropyl-3-(2,6-dichlorophenyl)isoxazol-4-yl)spiro[3.5]non-1-en-7-yl)oxy)-4-fluorobenzo[d]thiazole-6-carboxylic acid]
73 nM | O=C(O[C@@H]1O[C@H](C(=O)O)[C@@H](O)[C@H](O)[C@H]1O)c1cc(C(F)(F)F)c2cc(N3CCC4(C=C(c5c(-c6c(Cl)cncc6Cl)noc5C5CC5)C4)CC3)ccc2n1 [Example 224, (2S,3S,4S,5R,6S)-6-((6-(2-(5-Cyclopropyl-3-(3,5-dichloropyridin-4-yl)isoxazol-4-yl)-7-azaspiro[3.5]non-1-en-7-yl)-4-(trifluoromethyl)quinoline-2-carbonyl)oxy)-3,4,5-trihydroxytetrahydro-2H-pyran-2-carboxylic acid]
160 nM | COc1cc(C(=O)O)nc2ccc(N3CCC4(C=C(c5c(-c6ncccc6Cl)noc5C5CC5)C4)CC3)cc12 [Example 145, 6-(2-(3-(3-Chloropyridin-2-yl)-5-cyclopropylisoxazol-4-yl)-7-azaspiro[3.5]non-1-en-7-yl)-4-methoxyquinoline-2-carboxylic acid]
1300 nM | Cc1cc(C(=O)O)nc(N2CCC3(C=C(c4c(-c5ccccc5C(F)(F)F)noc4C4CC4)C3)CC2)n1 [Example 169, 2-(2-(5-Cyclopropyl-3-(2-(trifluoromethyl)phenyl)isoxazol-4-yl)-7-azaspiro[3.5]non-1-en-7-yl)-6-methylpyrimidine-4-carboxylic acid]
459 nM | O=C(O)c1cc2ccc(N3CCC4(C=C(c5c(-c6c(F)cccc6Cl)noc5C5CC5)C4)CC3)cc2cn1 [Example 158, 7-(2-(3-(2-Chloro-6-fluorophenyl)-5-cyclopropylisoxazol-4-yl)-7-azaspiro[3.5]non-1-en-7-yl)isoquinoline-3-carboxylic acid]

Structure (SMILES) | EC50
CCOC(=O)c1cc(F)c2nc(N3[C@@H]4CC[C@H]3C[C@@]3(COC(c5c(-c6c(Cl)cccc6Cl)noc5C5CC5)O3)C4)sc2c1 (stereo partly drawn) [Example 40, Ethyl 2-((1R,3S,5S)-2′-(5-cyclopropyl-3-(2,6-dichlorophenyl)isoxazol-4-yl)-8-azaspiro[bicyclo[3.2.1]octane-3,4′-[1,3]dioxolan]-8-yl)-4-fluorobenzo[d]thiazole-6-carboxylate] | 3400 nM
